Measured values reported in publication PMC7796366, “Application of HPLC-DAD for In Vitro Investigation of Acetylcholinesterase Inhibition Activity of Selected Isoquinoline Alkaloids from Sanguinaria canadensis Extracts” (Molecules, 2021).
“And” between values parts separate entries of the source, which are not always exact repeats. Equal entries are not always repeated.

Target: T1, acetylcholinesterase (Homo sapiens, UniProt P22303)
T1 construct: purchased Sigma-Aldrich (St. Louis, MO, USA)
Assay: biochemical
Type: biochemical
Details: for IC50: concentration of acetylcholinesterase 0.2 U/mL, HPLC-DAD; for inhibition: single alkaloid standard, addition of 125 µL of 1 mg/mL (250 µg/mL final), acetylcholinesterase 10 U/mL
Experimental: For determination of acetylcholinesterase inhibitory activity, HPLC analysis was performed on the same apparatus as determination of alkaloid contents on Polar RP column with mobile phase A containing methanol and 0.0025 M diethylamine, mobile phase B containing acetate buffer at pH 3.8 and 0.0025 M diethylamine, and mobile phase in gradient elution: 0–15 min, 10% A; 15–30 min, 10–70% A; 30–60 min, 70% A. Flow rate was 1 mL/min.
[…] Samples for determination of acetylcholinesterase inhibitory activity were prepared by addition of 50 µL of acetylthiocholine iodide, 50 µL of 5′-dithiobis-(2-nitrobenzoic acid), […], and phosphate buffer at pH 7.8 to obtain 500 µL of final solution. […] All components were mixed and samples were incubated for 15 min at 37 °C. Samples were filtrated by syringe filter (CHROMAFIL Xtra, PVDF-29/25 0.20 µm) and injected into the HPLC system.

T1 sequence (P22303 32-614, species assumed): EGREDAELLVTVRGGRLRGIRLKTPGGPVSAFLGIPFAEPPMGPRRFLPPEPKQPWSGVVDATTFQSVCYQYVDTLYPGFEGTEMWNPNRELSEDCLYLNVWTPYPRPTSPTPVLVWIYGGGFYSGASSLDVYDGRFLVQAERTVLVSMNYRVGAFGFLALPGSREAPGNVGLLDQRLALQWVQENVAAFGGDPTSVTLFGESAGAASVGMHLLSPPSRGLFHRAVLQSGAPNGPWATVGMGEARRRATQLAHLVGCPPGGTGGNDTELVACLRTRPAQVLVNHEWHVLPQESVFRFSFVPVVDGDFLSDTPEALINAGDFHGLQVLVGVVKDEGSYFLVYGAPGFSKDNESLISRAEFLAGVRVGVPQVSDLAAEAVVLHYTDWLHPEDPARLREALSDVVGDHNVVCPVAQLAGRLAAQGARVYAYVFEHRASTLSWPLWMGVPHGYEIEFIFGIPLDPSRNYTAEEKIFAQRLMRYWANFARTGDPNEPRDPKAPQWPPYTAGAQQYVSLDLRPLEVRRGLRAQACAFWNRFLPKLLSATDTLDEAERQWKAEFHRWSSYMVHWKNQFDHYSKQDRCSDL

Which “% inhibition of acetylcholinesterase activity” value does the source give for COc1ccc2cc3[n+](cc2c1OC)CCc1cc2c(cc1-3)OCO2 [Berberine] here?
Its value is “highest activity”.

How did the IC50 turn out when COc1ccc2c(c[n+](C)c3c4cc5c(cc4ccc23)OCO5)c1OC [Chelerythrine] was run?
The IC50 was 0.718 µM and 0.72 µM.

And the inhibition?
Its inhibition is 100%.

What does the source list for CN1Cc2c(ccc3c2OCO3)[C@@H]2[C@H]1c1cc3c(cc1C[C@@H]2O)OCO3 [Chelidonine]?
IC50: 27 µM; inhibition: 100%

For CN1CCc2cc3c(cc2C(=O)Cc2ccc4c(c2C1)OCO4)OCO3 [Protopine], which IC50 is on record?
Its IC50 is 65.5 µM.

And the inhibition?
Its inhibition is ~22%.

How did the IC50 turn out when C[n+]1cc2c3c(ccc2c2ccc4cc5c(cc4c21)OCO5)OCO3 [Sanguinarine] was run?
Its IC50 is 5.57 µM.
